Numbered stars: 1 amine (or outer) side, 2 acyl side, 3 side chain; on linkers, the order of the positions; unused ones are H or OH. Square brackets hold non-standard residues; d marks the D form. Peptide text beside a SMILES is read from it. X1 = CC(C)C[C@H](N[*:1])P(=O)(O)C[C@@H](C)C(=O)[*:2]
Assays:
[1] = Stability in human serum assessed as half life; format: ADME, cell-free
Beta-secretase 1 [2] = molecular target: T1, Beta-secretase 1 (Homo sapiens, UniProt P56817); assay: Inhibition of full-domain of BACE1 expressed in […] cells; format: cell-based
[3] = Stability in human serum after 120 mins; format: ADME, cell-free; details: read-out: Stability
Beta-secretase 1 [4] = molecular target: T1, Beta-secretase 1; assay: Inhibition of ectodomain of BACE1 secreted from […] cells by fluorimetry; format: cell-based
[5] = Stability in human serum after 160 mins; format: ADME, cell-free; details: read-out: Stability

T1 sequence (P56817 whole entry): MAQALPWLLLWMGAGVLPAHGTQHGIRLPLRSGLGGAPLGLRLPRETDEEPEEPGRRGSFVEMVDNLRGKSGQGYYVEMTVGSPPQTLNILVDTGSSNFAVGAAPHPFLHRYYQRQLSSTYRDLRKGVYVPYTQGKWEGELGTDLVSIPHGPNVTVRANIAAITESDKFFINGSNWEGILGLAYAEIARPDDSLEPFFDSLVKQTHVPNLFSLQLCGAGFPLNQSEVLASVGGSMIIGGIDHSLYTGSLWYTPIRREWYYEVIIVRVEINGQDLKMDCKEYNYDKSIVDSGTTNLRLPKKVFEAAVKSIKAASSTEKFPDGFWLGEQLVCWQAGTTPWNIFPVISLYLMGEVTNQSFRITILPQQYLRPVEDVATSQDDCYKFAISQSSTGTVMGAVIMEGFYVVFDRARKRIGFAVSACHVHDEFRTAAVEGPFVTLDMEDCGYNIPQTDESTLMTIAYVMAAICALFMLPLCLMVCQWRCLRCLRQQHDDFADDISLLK

`CC(C)C[C@H](NC(=O)[C@@H](N)CCC(=O)O)C(=O)N[C@@H](CC(=O)O)C(=O)N[C@@H](CC(C)C)P(=O)(O)C[C@@H](C)C(=O)N[C@H](C(=O)N[C@@H](CCC(=O)O)C(=O)N[C@@H](Cc1ccccc1)C(=O)O)C(C)C` (H-ELD[X1]VEF-OH) showed a half-life [1] of 14.8 min, an IC50 (Beta-secretase 1 [2]) of 12 nM and a remaining at 2 h [3] of 20%.
With `CC(CP(=O)(O)C1CCCCCC[C@H](NC(=O)[C@@H](N)CCC(=O)O)C(=O)N[C@@H](CC(=O)O)C(=O)N1)C(=O)N[C@H](C(=O)N[C@@H](CCC(=O)O)C(=O)N[C@@H](Cc1ccccc1)C(=O)O)C(C)C` (mixture of isomers; form 1) the IC50 (Beta-secretase 1 [4]) was 47 nM, the half-life [1] was 43.9 min and the remaining at 160 min [5] was 20%.
In the case of `CC(CP(=O)(O)C1CCCCCC[C@H](NC(=O)[C@@H](N)CCC(=O)O)C(=O)N[C@@H](CC(=O)O)C(=O)N1)C(=O)N[C@H](C(=O)N[C@@H](CCC(=O)O)C(=O)N[C@@H](Cc1ccccc1)C(=O)O)C(C)C` (mixture of isomers; form 2), the IC50 (Beta-secretase 1 [4]) is reported as 320 nM.
In the case of `CC(CP(=O)(O)C1CCCCCC[C@H](NC(=O)[C@@H](N)CCC(=O)O)C(=O)N[C@@H](CC(=O)O)C(=O)N1)C(=O)N[C@H](C(=O)N[C@@H](CCC(=O)O)C(=O)N[C@@H](Cc1ccccc1)C(=O)O)C(C)C` (mixture of isomers; form 3), the IC50 (Beta-secretase 1 [4]) is reported as 522 nM.
For `CC(CP(=O)(O)C1CCCCCC[C@H](NC(=O)[C@@H](N)CCC(=O)O)C(=O)N[C@@H](CC(=O)O)C(=O)N1)C(=O)N[C@H](C(=O)N[C@@H](CCC(=O)O)C(=O)N[C@@H](Cc1ccccc1)C(=O)O)C(C)C` (mixture of isomers; form 4), the IC50 (Beta-secretase 1 [4]) was 808 nM.

From ChEMBL document CHEMBL1153638, “Prolonged stability by cyclization: Macrocyclic phosphino dipeptide isostere inhibitors of beta-secretase (BACE1)” (Bioorg Med Chem Lett, 2009)
